We go through 34 compounds from patent publication US9394261B2, “Aryl amine substituted pyrimidine and quinazoline and their use as anticancer drugs” (National Yang-Ming University, priority 2012, dated 2016).

Some results are limits rather than exact numbers.

The subject of the first assay is Hep3B cell lines. Briefly: MTT assay, growth inhibition of Hep3B cells. As to conditions: Homo sapiens. Type of assay: cell-based. As for the experimental part: (§1) The effect of individual test compounds on cell viability was assessed by using the MTT in 6 replicates. Sk-Hep-1 cells were seeded and incubated in 96-well, flat-bottomed plates for 24 hours, and were exposed to various concentrations of test compounds dissolved in DMSO (final concentration, 0.1%) for 48 hours. Controls received DMSO vehicle at a concentration equal to that in drug-treated cells. The medium was removed, replaced by 200 μL of 0.5 mg/mL MTT in 10% fetal bovine serum containing DMEM (Dulbecco's Modified Eagle Medium), and cells were incubated in the carbon dioxide incubator at 37° C. for 2 hours. Supernatants were removed from the wells and the reduced MTT dye was solubilized in 100 μL/well DMSO. Absorbance at 570 nm was determined on a plate reader.
(§2) Next, compounds 19, and 34-36 were screened against a panel of Hep3B cell lines for growth-inhibitory activities. […] Compounds 87-90, 95 and 96 were screened against a panel of PLC5 cell lines for growth-inhibitory activities.
A general note: Formazan colour is commonly taken as a measure of viable cells.
In the case of `C#Cc1cccc(Nc2nc(Nc3cccc(NCc4ccccc4)c3)nc3cc(OC)c(OC)cc23)c1` [Compound 34, N^2-(3-(benzylamino)phenyl)-N^4-(3-ethynylphenyl)-6,7-dimethoxyquinazoline-2,4-diamine], the IC50 was 3.35 µM. The same measure, in the same setting: to `C#Cc1cccc(Nc2nc(Nc3cccc(NC(=O)c4cc(C(F)(F)F)cc(C(F)(F)F)c4)c3)nc3cc(OC)c(OC)cc23)c1` [Compound 35, N-(3-(4-(3-ethynylphenylamino)-6,7-dimethoxyquinazolin-2-ylamino)phenyl)-3,5-bis(trifluoromethyl)benzamide] belongs 3.27 µM; to `C#Cc1cccc(Nc2nc(Nc3cccc(NC(=O)c4cccc(C(F)(F)F)c4)c3)nc3cc(OC)c(OC)cc23)c1` [Compound 36, N-(3-(4-(3-ethynylphenylamino)-6,7-dimethoxyquinazolin-2-ylamino)phenyl)-3-(trifluoromethyl)benzamide], 3.38 µM.

Another assay concerns SK-Hep-1 cell lines (a hepatocellular carcinoma (HCC) cell). Briefly: MTT assay, growth inhibition of SK-Hep-1 cells. To be noted: Homo sapiens, SK-HEP1, 48 h, SK-Hep-1 cells, 48 hours. Type of assay: cell-based. As for the experimental part:
MTT assay was used to measure growth inhibition. […] MTT (3-(4,5-dimethylthiazol-2-yl)-2,5-diphenyl tetrazolium bromide) assay was performed as follow.
as §1
The SK-Hep1 cells were then analyzed with western blot assay and MTT assay.
`C#Cc1cccc(Nc2ccnc(Cl)n2)c1` [Compound 1, 2-Chloro-N-(3-ethynylphenyl)pyrimidin-4-amine] registered a 50% inhibitory concentration (IC50) greater than 40 µM. Still for that read-out and setting: to `Clc1cccc(Nc2ccnc(Cl)n2)c1` [Compound 2, 2-Chloro-N-(3-chlorophenyl)pyrimidin-4-amine] belongs greater than 40 µM. Still for that read-out and setting: as for `FC(F)(F)c1cc(Nc2ccnc(Cl)n2)ccc1Cl` [Compound 3, 2-Chloro-N-(4-chloro-3-(trifluoromethyl)phenyl)pyrimidin-4-amine], the figure is greater than 40 µM; as for `Clc1nccc(NCc2ccccc2)n1` [Compound 5, N-Benzyl-2-chloropyrimidin-4-amine], greater than 40 µM; as for `C#Cc1cccc(Nc2ccnc(Nc3cccc(C#C)c3)n2)c1` [Compound 6, N^2,N^4-Bis(3-ethynylphenyl)pyrimidine-2,4-diamine], less than 10 µM. The same measure, in the same setting: to `FC(F)(F)c1cc(Nc2ccnc(Nc3ccc(Cl)c(C(F)(F)F)c3)n2)ccc1Cl` [Compound 7, N^2,N^4-Bis(4-chloro-3-(trifluoromethyl)phenyl)pyrimidine-2,4-diamine] belongs 10 to 20 µM; to `C#Cc1cccc(N(C)c2nc(Cl)nc3cc(OC)c(OC)cc23)c1` [Compound 9, 2-Chloro-N-(3-ethynylphenyl)-6,7-dimethoxy-N-methyl quinazoline-4-amine], 10 to 20 µM; to `COc1cc2nc(Cl)nc(Nc3cccc(Cl)c3)c2cc1OC` [Compound 10, 2-Chloro-N-(3-chlorophenyl)-6,7-dimethoxyquinazoline-4-amine], 10 to 20 µM. `COc1cc2nc(Cl)nc(Nc3cccc(O)c3)c2cc1OC` [Compound 11, 3-(2-Chloro-6,7-dimethoxyquinazoline-4-ylamino)phenol] gave a 50% inhibitory concentration (IC50) greater than 40 µM. Compound `COc1cc2nc(Cl)nc(Nc3cc(C)ccc3F)c2cc1OC` [Compound 12, 2-Chloro-N-(2-fluoro-5-methylphenyl)-6,7-dimethoxy quinazoline-4-amine] came in with an IC50 greater than 40 µM. Still for that read-out and setting: as for `COc1cc2nc(Cl)nc(Nc3ccc(Oc4ccccc4)cc3)c2cc1OC` [Compound 14, 2-Chloro-6,7-dimethoxy-N-(4-phenoxyphenyl)quinazoline-4-amine], the figure is 10 to 20 µM; as for `COc1cc2nc(Cl)nc(Nc3ccc(O)cc3C)c2cc1OC` [Compound 15, 4-(2-Chloro-6,7-dimethoxyquinazoline-4-ylamino)-3-methylphenol], greater than 40 µM; as for `COc1cc2nc(Cl)nc(Nc3cccc(Oc4ccc(C#N)cc4)c3)c2cc1OC` [Compound 16, 4-(3-(2-Chloro-6,7-dimethoxyquinazoline-4-ylamino)phenoxy)benzonitrile], greater than 40 µM. Same read-out and setting: as for `COc1cc2nc(Cl)nc(NCc3ccccc3)c2cc1OC` [Compound 17, N-Benzyl-2-chloro-6,7-dimethoxyquinazoline-4-amine], the figure is 10 to 20 µM; as for `C#Cc1cccc(Nc2nc(Nc3ccc(Cl)c(C(F)(F)F)c3)nc3cc(OC)c(OC)cc23)c1` [Compound 18, N^2-(4-Chloro-3-(trifluoromethyl)phenyl)-N^4-(3-ethynylphenyl)-6,7-dimethoxy-quinazoline-2,4-diamine], less than 10 µM.

`C#Cc1cccc(Nc2nc(Nc3cccc(Cl)c3)nc3cc(OC)c(OC)cc23)c1` [Compound 20, N^2-(3-Chlorophenyl)-N^4-(3-ethynylphenyl)-6,7-dimethoxy quinazoline-2,4-diamine] displayed a concentration for half-maximal inhibition (IC50) of less than 10 µM. On the same count and under the same terms, as for `C#Cc1cccc(Nc2nc(Nc3ccc(Oc4ccc(C#N)cc4)cc3)nc3cc(OC)c(OC)cc23)c1` [Compound 24, 4-(4-(4-(3-Ethynylphenylamino)-6,7-dimethoxyquinazolin-2-ylamino)phenoxy)benzonitrile], the figure is 10 to 20 µM. Still for that read-out and setting: as for `C#Cc1cccc(Nc2nc(Nc3cccc(C#C)c3)c3cc(OC)c(OC)cc3n2)c1` [Compound 25, N^2,N^4-Bis(3-ethynylphenyl)-6,7-dimethoxyquinazoline-2,4-diamine], the figure is less than 10 µM; as for `C#Cc1cccc(Nc2nc(Nc3cccc(CC)c3)nc3cc(OC)c(OC)cc23)c1` [Compound 26, N^2-(3-ethylphenyl)-N^4-(3-ethynylphenyl)-6,7-dimethoxy quinazoline-2,4-diamine], less than 10 µM. Compound `C#Cc1cccc(Nc2nc(NCc3ccc(OC)c(OC)c3)nc3cc(OC)c(OC)cc23)c1` [Compound 29, N^2-(3,4-dimethoxybenzyl)-N^4-(3-ethynylphenyl)-6,7-dimethoxyquinazoline-2,4-diamine] gave a 50% inhibitory concentration (IC50) of less than 10 µM. On the same count and under the same terms, as for `C#Cc1cccc(Nc2nc(Nc3cccc(NS(=O)(=O)c4ccccc4)c3)nc3cc(OC)c(OC)cc23)c1` [Compound 30, N-(3-(4-(3-ethynylphenylamino)-6,7-dimethoxyquinazolin-2-ylamino)phenyl)benzenesulfonamide], the figure is less than 10 µM; as for `C#Cc1cccc(Nc2nc(Nc3cccc(NS(=O)(=O)c4ccc(C(F)(F)F)cc4Br)c3)nc3cc(OC)c(OC)cc23)c1` [Compound 32, 2-Bromo-N-(3-(4-(3-ethynylphenylamino)-6,7-dimethoxyquinazolin-2-ylamino)phenyl)-4-(trifluoromethyl)benzenesulfonamide], less than 10 µM.

Staying with this assay, now noted: SK-Hep-1 (HCC) cells.
For `C#Cc1cccc(Nc2ccnc(Nc3cccc(C#C)c3)n2)c1` [Compound 6, N^2,N^4-Bis(3-ethynylphenyl)pyrimidine-2,4-diamine], the “growth-inhibitory activity (MTT), in words” value is listed as “more potent anti-tumor activity than the mono-substituted pyrimidine derivatives”. `FC(F)(F)c1cc(Nc2ccnc(Nc3ccc(Cl)c(C(F)(F)F)c3)n2)ccc1Cl` [Compound 7, N^2,N^4-Bis(4-chloro-3-(trifluoromethyl)phenyl)pyrimidine-2,4-diamine]: the “growth-inhibitory activity (MTT), in words” value was “more potent anti-tumor activity than the mono-substituted pyrimidine derivatives”.

The same assay, now with this note: SK-Hep-1 cells, 48 hours.
Compound `C#Cc1cccc(N(C)c2nc(Cl)nc3cc(OC)c(OC)cc23)c1` [Compound 9, 2-Chloro-N-(3-ethynylphenyl)-6,7-dimethoxy-N-methyl quinazoline-4-amine] registered a half-maximal inhibitory concentration (IC50) of 12.3 ± 0.6 µM.

Regarding `COc1cc2nc(Cl)nc(Nc3ccc(Oc4ccccc4)cc3)c2cc1OC` [Compound 14, 2-Chloro-6,7-dimethoxy-N-(4-phenoxyphenyl)quinazoline-4-amine], inhibition was half-maximal at 15.3 ± 0.6 µM (IC50).

In turn, `C#Cc1cccc(Nc2nc(Nc3cccc(Oc4ccc(C#N)cc4)c3)nc3cc(OC)c(OC)cc23)c1` [Compound 23, 4-(3-(4-(3-Ethynylphenylamino)-6,7-dimethoxyquinazolin-2-ylamino)phenoxy)benzonitrile] returned an IC50 of 3.9 µM. Still for that read-out and setting: to `C#Cc1cccc(Nc2nc(Nc3ccc(Oc4ccc(C#N)cc4)cc3)nc3cc(OC)c(OC)cc23)c1` [Compound 24, 4-(4-(4-(3-Ethynylphenylamino)-6,7-dimethoxyquinazolin-2-ylamino)phenoxy)benzonitrile] belongs 14.5 µM; to `C#Cc1cccc(Nc2nc(NCc3ccc(Cl)c(C(F)(F)F)c3)nc3cc(OC)c(OC)cc23)c1` [Compound 27, N^2-(4-Chloro-3-(trifluoromethyl)benzyl)-N^4-(3-ethynylphenyl)-6,7-dimethoxyquinazoline-2,4-diamine], 2.6 µM; to `C#Cc1cccc(Nc2nc(NCc3cccc(OC(F)(F)F)c3)nc3cc(OC)c(OC)cc23)c1` [Compound 28, N^4-(3-Ethynylphenyl)-6,7-dimethoxy-N^2-(3-(trifluoromethoxy)benzyl)quinazoline-2,4-diamine], 2.55 µM.

As for `C#Cc1cccc(Nc2nc(Nc3cccc(NS(=O)(=O)c4cccc(C(F)(F)F)c4)c3)nc3cc(OC)c(OC)cc23)c1` [Compound 31, N-(3-(4-(3-Ethynylphenylamino)-6,7-dimethoxyquinazolin-2-ylamino)phenyl)-3-(trifluoromethyl)benzenesulfonamide], the midpoint of inhibition, the IC50, lay at 1.95 µM. Same read-out and setting: as for `C#Cc1cccc(Nc2nc(Nc3cccc(NC(=O)c4ccccc4)c3)nc3cc(OC)c(OC)cc23)c1` [Compound 33, N-(3-(4-(3-ethynylphenylamino)-6,7-dimethoxyquinazolin-2-ylamino)phenyl)benzamide], the figure is 2.65 µM.

The subject of the next assay is PLC5 cell lines. Briefly: MTT assay, growth inhibition of PLC5 cells. To be noted: PLC5, PLC5 cells. Type of assay: cell-based. As for the experimental part:
as §1, §2
As to `C#Cc1cccc(Nc2nc(Nc3ccc(Cl)c(Oc4ccc(C#N)cc4)c3)nc3cc(OC)c(OC)cc23)c1` [Compound 87, 4-(2-chloro-5-((4-((3-ethynylphenyl)amino)-6,7-dimethoxyquinazolin-2-yl)amino)phenoxy)benzonitrile], the 50% inhibitory concentration (IC50) worked out at 8.2 µM. `C#Cc1cccc(Nc2nc(Nc3ccc(Cl)c(Oc4ccc(C#N)c(C)c4)c3)nc3cc(OC)c(OC)cc23)c1` [Compound 89, 4-(2-chloro-5-((4-((3-ethynylphenyl)amino)-6,7-dimethoxyquinazolin-2-yl)amino)phenoxy)-2-methylbenzonitrile] registered an IC50 of 20.2 µM.

Consider `C#Cc1cccc(Nc2nc(Nc3ccc(Oc4ccc(Cl)c(Cl)c4)cc3)nc3cc(OC)c(OC)cc23)c1` [Compound 90, N^2-(4-(3,4-dichlorophenoxyl)phenyl)-N^4-(3-ethynylphenyl)-6,7-dimethoxyquinazoline-2,4-diamine], for which the concentration for half-maximal inhibition (IC50) is 0.77 µM. In the case of `C#Cc1cccc(Nc2nc(Nc3ccc(Oc4ccc(Cl)cc4)cc3)nc3cc(OC)c(OC)cc23)c1` [Compound 96, N^2-(4-(4-chlorophenoxyl)phenyl)-N^4-(3-ethynylphenyl)-6,7-dimethoxyquinazoline-2,4-diamine], the midpoint of inhibition, the IC50, lay at 0.61 µM.

One may read the IC50 as the concentration that inhibits the measured activity by half. Read a low IC50 as greater potency.
